We go through 32 compounds from ChEMBL document CHEMBL1142855, “Hydroxylated N-alkyl-4-piperidinyl-2,3-diarylpyrrole derivatives as potent broad-spectrum anticoccidial agents” (Bioorg Med Chem Lett, 2005).

Assay [1] relates to Eimeria acervulina. Put plainly: Anticoccidial activity as percentage reduction in oocyst production in birds infected with Eimeria acervulina after 100 ppm dose. It is filed as functional.
Assay [2] relates to Eimeria tenella. Nature of the assay: Anticoccidial activity as percentage reduction in oocyst production in birds infected with Eimeria tenella after 100 ppm dose; Range is 50-79%. It is filed as functional.
For assay [3], the system named is Eimeria tenella. Nature of the assay: Anticoccidial activity as percentage reduction in oocyst production in birds infected with Eimeria tenella after 100 ppm dose. It is filed as functional.
Assay [4] deals with cGMP-dependent protein kinase (Eimeria tenella, UniProt Q8MMZ8). Put plainly: Inhibitory activity against cGMP-dependent protein kinase from Eimeria tenella.
Chain of cGMP-dependent protein kinase (Q8MMZ8 whole entry): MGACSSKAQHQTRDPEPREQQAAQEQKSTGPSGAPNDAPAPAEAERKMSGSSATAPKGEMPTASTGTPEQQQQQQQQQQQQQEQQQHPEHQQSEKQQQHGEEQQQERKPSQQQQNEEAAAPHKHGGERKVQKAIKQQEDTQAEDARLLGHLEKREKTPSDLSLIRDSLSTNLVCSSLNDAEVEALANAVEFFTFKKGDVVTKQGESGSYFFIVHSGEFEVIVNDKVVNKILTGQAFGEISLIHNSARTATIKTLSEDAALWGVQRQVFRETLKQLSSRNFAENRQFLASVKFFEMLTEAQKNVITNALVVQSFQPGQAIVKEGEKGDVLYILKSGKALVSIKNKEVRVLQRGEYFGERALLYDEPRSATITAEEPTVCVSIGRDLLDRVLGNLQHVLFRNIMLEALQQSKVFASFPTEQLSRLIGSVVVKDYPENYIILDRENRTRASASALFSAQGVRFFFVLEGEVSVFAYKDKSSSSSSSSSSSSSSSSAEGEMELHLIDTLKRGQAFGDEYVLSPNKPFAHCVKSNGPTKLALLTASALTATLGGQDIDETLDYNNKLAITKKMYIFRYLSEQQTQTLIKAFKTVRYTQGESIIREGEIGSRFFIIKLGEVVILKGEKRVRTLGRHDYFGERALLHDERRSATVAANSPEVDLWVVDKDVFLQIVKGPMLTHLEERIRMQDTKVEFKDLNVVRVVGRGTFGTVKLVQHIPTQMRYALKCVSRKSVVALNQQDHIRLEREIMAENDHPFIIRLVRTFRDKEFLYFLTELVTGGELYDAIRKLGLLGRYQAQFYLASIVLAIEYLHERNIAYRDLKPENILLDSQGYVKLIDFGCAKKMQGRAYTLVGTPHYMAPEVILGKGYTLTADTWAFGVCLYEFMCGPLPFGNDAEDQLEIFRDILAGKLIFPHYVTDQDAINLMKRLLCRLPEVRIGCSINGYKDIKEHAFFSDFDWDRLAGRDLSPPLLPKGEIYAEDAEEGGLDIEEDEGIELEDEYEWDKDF

SMILES strings stand for the structures.

`OCCCN1CCC(c2cc(-c3ccncc3)c(-c3ccc(F)cc3)[nH]2)CC1`: the results for the “Anticoccidial Activity” value in assay [1] and in assay [2] were more than 80% and 79%, respectively.
`OCCN1CCC(c2cc(-c3ccncc3)c(-c3ccc(F)cc3)[nH]2)CC1`: the “Anticoccidial Activity” value in assay [3] and in assay [1] was more than 80% in each case.
With `CCCN1CCC(c2cc(-c3ccncc3)c(-c3ccc(F)cc3)[nH]2)CC1`, the “Anticoccidial Activity” value in assay [3] and in assay [1] was less than 50% in each case.
For orientation: IC50 means the concentration at which inhibition is half-maximal. On to `CC(O)[C@H](CO)N1CCC(c2cc(-c3ccncc3)c(-c3ccc(F)cc3)[nH]2)CC1` (stereo partly specified), for which the “Anticoccidial Activity” value in assay [3] and in assay [1] was more than 80% each time. Moreover, the IC50 in assay [4] turned out to be 0.82 nM.
For the compound `OCCCCN1CCC(c2cc(-c3ccncc3)c(-c3ccc(F)cc3)[nH]2)CC1`, the “Anticoccidial Activity” value in assay [3] and in assay [1] was more than 80% in each case. Inhibition in assay [4] was half-maximal at 1.34 nM (IC50).
For the compound `OC(COCc1ccco1)CN1CCC(c2cc(-c3ccncc3)c(-c3ccc(F)cc3)[nH]2)CC1` (stereo unspecified), the “Anticoccidial Activity” value in assay [3] and in assay [1] was less than 50% in each case. In assay [4], this compound came in with an IC50 of 0.82 nM.
`C[C@H](O)CN1CCC(c2cc(-c3ccncc3)c(-c3ccc(F)cc3)[nH]2)CC1`: the “Anticoccidial Activity” value in assay [3] and in assay [1] was more than 80% in each case. This compound came in with an IC50 in assay [4] of 0.48 nM.
In the case of `CCC(O)CN1CCC(c2cc(-c3ccncc3)c(-c3ccc(F)cc3)[nH]2)CC1` (stereo unspecified), the “Anticoccidial Activity” value in assay [3] and in assay [1] was more than 80% throughout. The IC50 in assay [4] stood at 0.71 nM.
With `CCCC(O)CN1CCC(c2cc(-c3ccncc3)c(-c3ccc(F)cc3)[nH]2)CC1` (stereo unspecified), the “Anticoccidial Activity” value in assay [3] and in assay [1] was less than 50% throughout. Further, the IC50 in assay [4] was found to be 0.38 nM.
Take `CCOCC(O)CN1CCC(c2cc(-c3ccncc3)c(-c3ccc(F)cc3)[nH]2)CC1` (stereo unspecified): the half-maximal inhibitory concentration (IC50) in assay [4] is 0.59 nM. The “Anticoccidial Activity” value in assay [1] was more than 80%; in assay [2] it was 79%.
On to `CCCCC(O)CN1CCC(c2cc(-c3ccncc3)c(-c3ccc(F)cc3)[nH]2)CC1` (stereo unspecified), for which the “Anticoccidial Activity” value in assay [3] and in assay [1] was less than 50% throughout. The IC50 in assay [4] came to 0.41 nM.
With `CC(O)C(O)CN1CCC(c2cc(-c3ccncc3)c(-c3ccc(F)cc3)[nH]2)CC1` (stereo unspecified), the “Anticoccidial Activity” value in assay [3] and in assay [1] was more than 80% throughout. In assay [4], the IC50 is 0.4 nM.
Consider `OC(Cc1ccccc1)CN1CCC(c2cc(-c3ccncc3)c(-c3ccc(F)cc3)[nH]2)CC1` (stereo unspecified), for which the figures for the “Anticoccidial Activity” value in assay [3] and in assay [1] were less than 50% and more than 80%, respectively. It took 1.28 nM to reach half-maximal inhibition in assay [4] (IC50).
In the same order, the values of `OCCCCCN1CCC(c2cc(-c3ccncc3)c(-c3ccc(F)cc3)[nH]2)CC1` are more than 80%, more than 80% and 1.46 nM.
Regarding `CC(C)(C)OCC(O)CN1CCC(c2cc(-c3ccncc3)c(-c3ccc(F)cc3)[nH]2)CC1` (stereo unspecified), the “Anticoccidial Activity” value in assay [3] and in assay [1] was less than 50% in each case. Further, in assay [4], half-maximal inhibition (IC50) was put at 0.98 nM.
`C=CCOCC(O)CN1CCC(c2cc(-c3ccncc3)c(-c3ccc(F)cc3)[nH]2)CC1` (stereo unspecified): the “Anticoccidial Activity” value in assay [3] and in assay [1] was less than 50% throughout. In assay [4], the half-inhibitory concentration (IC50) came to 0.8 nM.
In the case of `OC(COCc1ccccc1)CN1CCC(c2cc(-c3ccncc3)c(-c3ccc(F)cc3)[nH]2)CC1` (stereo unspecified), the “Anticoccidial Activity” value in assay [3] and in assay [1] was less than 50% in each case. Moreover, the IC50 in assay [4] worked out at 0.47 nM.
On to `COC[C@H](O)CN1CCC(c2cc(-c3ccncc3)c(-c3ccc(F)cc3)[nH]2)CC1`, for which the “Anticoccidial Activity” value in assay [3] and in assay [1] was more than 80% each time. The IC50 in assay [4] stood at 0.69 nM.
With `COC[C@@H](O)CN1CCC(c2cc(-c3ccncc3)c(-c3ccc(F)cc3)[nH]2)CC1`, the “Anticoccidial Activity” value in assay [3] and in assay [1] was more than 80% throughout. The same compound had an IC50 in assay [4] of 0.56 nM.
`CC(=O)N1C[C@H](O)CC1CN1CCC(c2cc(-c3ccncc3)c(-c3ccc(F)cc3)[nH]2)CC1` (stereo partly specified) gave a 50% inhibitory concentration (IC50) in assay [4] of 2.2 nM.
Consider `CC(O)[C@H](C)N1CCC(c2cc(-c3ccncc3)c(-c3ccc(F)cc3)[nH]2)CC1` (stereo partly specified), for which the “Anticoccidial Activity” value in assay [3] and in assay [1] was more than 80% each time. Further, in assay [4], the midpoint of inhibition, the IC50, lay at 0.86 nM.
For `CC(C)OCC(O)CN1CCC(c2cc(-c3ccncc3)c(-c3ccc(F)cc3)[nH]2)CC1` (stereo unspecified), the “Anticoccidial Activity” value in assay [3] and in assay [1] was less than 50% each time. The same compound gave an IC50 in assay [4] of 0.69 nM.
Turning to `CC(O)[C@@H](CO)N1CCC(c2cc(-c3ccncc3)c(-c3ccc(F)cc3)[nH]2)CC1` (stereo partly specified), the “Anticoccidial Activity” value in assay [3] and in assay [1] was more than 80% each time. For the same compound, in assay [4], half-maximal inhibition (IC50) was put at 1.01 nM.
Turning to `CC(=O)OCCN1CCC(c2cc(-c3ccncc3)c(-c3ccc(F)cc3)[nH]2)CC1`, the “Anticoccidial Activity” value in assay [3] and in assay [1] was less than 50% each time. The compound further yielded an IC50 in assay [4] of 2.08 nM.
On to `CCCCCCC(O)CN1CCC(c2cc(-c3ccncc3)c(-c3ccc(F)cc3)[nH]2)CC1` (stereo unspecified), for which the “Anticoccidial Activity” value in assay [3] and in assay [1] was less than 50% throughout. The compound further registered an IC50 in assay [4] of 1.01 nM.
Consider `C[C@@H](O)CN1CCC(c2cc(-c3ccncc3)c(-c3ccc(F)cc3)[nH]2)CC1`, for which the “Anticoccidial Activity” value in assay [3] and in assay [1] was more than 80% throughout. The compound also returned an IC50 in assay [4] of 1.2 nM.
With `OC(COc1ccccc1)CN1CCC(c2cc(-c3ccncc3)c(-c3ccc(F)cc3)[nH]2)CC1` (stereo unspecified), the “Anticoccidial Activity” value in assay [3] and in assay [1] was less than 50% throughout. The compound also gave an IC50 in assay [4] of 0.66 nM.
For `O[C@H]1CNC(CN2CCC(c3cc(-c4ccncc4)c(-c4ccc(F)cc4)[nH]3)CC2)C1` (stereo partly specified), in assay [4], 0.16 nM corresponded to half-maximal inhibition (IC50).
For `CC(O)[C@@H](C)N1CCC(c2cc(-c3ccncc3)c(-c3ccc(F)cc3)[nH]2)CC1` (mixture of isomers), the “Anticoccidial Activity” value in assay [3] and in assay [1] was more than 80% each time. 0.94 nM corresponded to half-maximal inhibition in assay [4] (IC50).
Take `OCC(O)CN1CCC(c2cc(-c3ccncc3)c(-c3ccc(F)cc3)[nH]2)CC1` (stereo in doubt; 5a): the figures for the “Anticoccidial Activity” value in assay [3] and in assay [1] were more than 80% and less than 50%, respectively. The compound further returned an IC50 in assay [4] of 0.51 nM.
As for `OCC(O)CN1CCC(c2cc(-c3ccncc3)c(-c3ccc(F)cc3)[nH]2)CC1` (stereo in doubt; 5b), the IC50 in assay [4] amounted to 0.71 nM. In assay [1], the “Anticoccidial Activity” value is recorded as more than 80%.
In turn, `OCC(O)CN1CCC(c2cc(-c3ccncc3)c(-c3ccc(F)cc3)[nH]2)CC1` (stereo in doubt; 5e) registered an IC50 in assay [4] of 1.27 nM.
